Measurements reported in the supplement of paper PMC10307832.

Columns and labels:
Assay in all cases: relative viability (nuclei count vs DMSO), 5 days (fraction); higher = more cells survive
[1] = compound: C1COCCN1C2=NC(=NC3=C2OC4=C3C=CC=N4)C5=CC(=CC=C5)NC(=O)C6=CN=C(C=C6)N + O=C(c1cc(Cc2n[nH]c(=O)c3ccccc23)ccc1F)N1CCN(C(=O)C2CC2)CC1 [Olaparib] (partner 8 µM)
In short: (§1)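 Lung cancer cell lines were pin-tool dosed in 1536-well plates on the day after seeding, with either a lone drug or a fixed anchor-drug dose plus five library-drug doses (not always all listed) in √10 steps. Nuclei were counted on 4× images after 5 days. Relative viability is the ratio of treated-well to vehicle-well nuclei counts, with each value a median of duplicate plates.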

[2] = compound: CN1CCC(CNc2ccc3ncc(-c4cccc(OC(F)(F)F)c4)n3n2)CC1 [SGI-1776] + N=C(N)NC(=N)NCCc1ccccc1 [Phenformin] (partner 250 µM)
In short: as §1

[3] = compound: CN1CCC(CNc2ccc3ncc(-c4cccc(OC(F)(F)F)c4)n3n2)CC1 [SGI-1776] + Nc1nc2[nH]cc(CCc3ccc(C(=O)N[C@@H](CCC(=O)O)C(=O)O)cc3)c2c(=O)[nH]1 [Pemetrexed] (partner 0.2 µM)
In short: as §1

[4] = compound: CN1CCC(CNc2ccc3ncc(-c4cccc(OC(F)(F)F)c4)n3n2)CC1 [SGI-1776] + O=C(c1cc(Cc2n[nH]c(=O)c3ccccc23)ccc1F)N1CCN(C(=O)C2CC2)CC1 [Olaparib] (partner 8 µM)
In short: as §1

Cell Line | relative viability ([1]; first compound 0.02 µM) | relative viability ([1]; first compound 0.06325 µM) | relative viability ([1]; first compound 0.2 µM) | relative viability ([1]; first compound 0.6325 µM) | relative viability ([1]; first compound 2 µM) | relative viability ([2]; first compound 0.08 µM) | relative viability ([2]; first compound 0.8 µM) | relative viability ([2]; first compound 2.53 µM) | relative viability ([2]; first compound 8 µM) | relative viability ([3]; first compound 0.08 µM) | relative viability ([3]; first compound 0.8 µM) | relative viability ([3]; first compound 2.53 µM) | relative viability ([3]; first compound 8 µM) | relative viability ([4]; first compound 0.08 µM) | relative viability ([4]; first compound 0.8 µM) | relative viability ([4]; first compound 2.53 µM) | relative viability ([4]; first compound 8 µM)
NCI-H520 | 0.383 | 0.352 | 0.332 | 0.328 | 0.292 | 0.687 | 0.597 | 0.53 | 0.316 | 0.784 | 0.692 | 0.553 | 0.348 | 0.36 | 0.318 | 0.386 | 0.203
Calu-6 | 0.685 | 0.68 | 0.604 | 0.528 | 0.467 |  |  |  |  |  |  |  |  | 0.61 | 0.559 | 0.642 | 0.474
SK-LU-1 | 0.429 | 0.432 | 0.607 | 0.478 | 0.355 | 0.528 | 0.494 | 0.37 | 0.322 | 1.02 | 0.932 | 1.1 | 0.781 | 0.514 | 0.5 | 0.452 | 0.5
LCLC-97TM1 | 0.533 | 0.388 | 0.341 | 0.33 | 0.287 | 0.487 | 0.434 | 0.465 | 0.456 | 0.182 | 0.2 | 0.143 | 0.182 | 0.421 | 0.421 | 0.419 | 0.439
HCC-15 | 0.757 | 0.775 | 0.735 | 0.671 | 0.628 | 0.45 | 0.417 | 0.372 | 0.343 | 0.229 | 0.226 | 0.223 | 0.197 | 0.717 | 0.759 | 0.755 | 0.687
H3255 | 0.522 | 0.531 | 0.531 | 0.56 | 0.436 | 0.372 | 0.391 | 0.331 | 0.325 | 0.602 | 0.609 | 0.649 | 0.471 | 0.563 | 0.595 | 0.646 | 0.529
NCI-H1915 | 0.215 | 0.273 | 0.245 | 0.266 | 0.269 | 0.37 | 0.368 | 0.382 | 0.357 | 0.481 | 0.463 | 0.497 | 0.47 | 0.256 | 0.265 | 0.248 | 0.23
NCI-H1650 | 0.72 | 0.903 | 0.757 | 0.88 | 0.591 | 0.441 | 0.368 | 0.248 | 0.129 | 0.348 | 0.367 | 0.36 | 0.296 | 0.8 | 0.946 | 0.734 | 0.607
NCI-H647 | 0.684 | 0.69 | 0.573 | 0.606 | 0.256 | 0.499 | 0.499 | 0.47 | 0.151 | 0.172 | 0.151 | 0.166 | 0.145 | 0.67 | 0.484 | 0.438 | 0.206
NCI-H2126 | 0.889 | 0.962 | 0.876 | 0.865 | 0.532 | 0.543 | 0.509 | 0.535 | 0.473 | 0.736 | 0.693 | 0.693 | 0.624 | 0.99 | 0.936 | 0.911 | 0.91
